The NIST ThermoML archive (doi:10.1021/je401036f)
± gives the expanded uncertainty stated by the source.

Assay: xn = mol fraction of the nth substance listed
Conditions: 101 kPa, Liquid; for viscosity: Concentric cylinders viscometry; for mass density: Vibrating tube method

CC(O)CN (stereo not given) [1-amino-2-propanol] + CCC(C)O
Conditions | mass density [kg/m3] | viscosity [mPa·s]
288.15 K, x1 = 0.1003 | 823.697 ± 0.27 | 5.068 ± 0.16
288.15 K, x1 = 0.2005 | 837.759 ± 0.3 | 5.97 ± 0.18
288.15 K, x1 = 0.3 | 852.257 ± 0.34 | 7.261 ± 0.22
288.15 K, x1 = 0.3999 | 867.392 ± 0.38 | 9.219 ± 0.29
288.15 K, x1 = 0.5 | 882.695 ± 0.43 | 11.68 ± 0.36
288.15 K, x1 = 0.6001 | 898.243 ± 0.48 | 14.95 ± 0.47
288.15 K, x1 = 0.7 | 914.159 ± 0.55 | 19.39 ± 0.61
288.15 K, x1 = 0.8 | 930.494 ± 0.62 | 25.16 ± 0.79
288.15 K, x1 = 0.8999 | 947.198 ± 0.7 | 32.94 ± 1
288.15 K, x1 = 1 | 964.544 ± 0.8 | 43.7 ± 1.4
293.15 K, x1 = 0.1003 | 819.706 ± 0.26 | 4.16 ± 0.13
293.15 K, x1 = 0.2005 | 833.763 ± 0.3 | 4.888 ± 0.15
293.15 K, x1 = 0.3 | 848.265 ± 0.33 | 5.949 ± 0.18
293.15 K, x1 = 0.3999 | 863.403 ± 0.38 | 7.373 ± 0.23
293.15 K, x1 = 0.5 | 878.701 ± 0.43 | 9.189 ± 0.29
293.15 K, x1 = 0.6001 | 894.252 ± 0.48 | 11.6 ± 0.36
293.15 K, x1 = 0.7 | 910.183 ± 0.55 | 14.8 ± 0.46
293.15 K, x1 = 0.8 | 926.524 ± 0.62 | 18.77 ± 0.59
293.15 K, x1 = 0.8999 | 943.272 ± 0.7 | 24.3 ± 0.77
293.15 K, x1 = 1 | 960.598 ± 0.79 | 31.68 ± 1
298.15 K, x1 = 0.1003 | 815.665 ± 0.26 | 3.45 ± 0.11
298.15 K, x1 = 0.2005 | 829.72 ± 0.3 | 4.048 ± 0.12
298.15 K, x1 = 0.3 | 844.235 ± 0.33 | 4.884 ± 0.15
298.15 K, x1 = 0.3999 | 859.38 ± 0.38 | 5.96 ± 0.18
298.15 K, x1 = 0.5 | 874.691 ± 0.42 | 7.338 ± 0.23
298.15 K, x1 = 0.6001 | 890.255 ± 0.48 | 9.121 ± 0.28
298.15 K, x1 = 0.7 | 906.21 ± 0.54 | 11.45 ± 0.36
298.15 K, x1 = 0.8 | 922.526 ± 0.62 | 14.41 ± 0.45
298.15 K, x1 = 0.8999 | 939.29 ± 0.7 | 18.35 ± 0.58
298.15 K, x1 = 1 | 956.618 ± 0.79 | 23.54 ± 0.75
303.15 K, x1 = 0.1003 | 811.527 ± 0.27 | 2.889 ± 0.089
303.15 K, x1 = 0.2005 | 825.623 ± 0.3 | 3.378 ± 0.1
303.15 K, x1 = 0.3 | 840.158 ± 0.33 | 4.059 ± 0.13
303.15 K, x1 = 0.3999 | 855.316 ± 0.38 | 4.898 ± 0.15
303.15 K, x1 = 0.5 | 870.629 ± 0.42 | 5.963 ± 0.19
303.15 K, x1 = 0.6001 | 886.197 ± 0.48 | 7.316 ± 0.23
303.15 K, x1 = 0.7 | 902.141 ± 0.54 | 9.136 ± 0.29
303.15 K, x1 = 0.8 | 918.502 ± 0.61 | 11.31 ± 0.36
303.15 K, x1 = 0.8999 | 935.275 ± 0.69 | 14.16 ± 0.45
303.15 K, x1 = 1 | 952.612 ± 0.78 | 17.89 ± 0.57
308.15 K, x1 = 0.1003 | 807.298 ± 0.27 | 2.444 ± 0.075
308.15 K, x1 = 0.2005 | 821.466 ± 0.3 | 2.86 ± 0.088
308.15 K, x1 = 0.3 | 836.03 ± 0.33 | 3.407 ± 0.11
308.15 K, x1 = 0.3999 | 851.209 ± 0.37 | 4.08 ± 0.13
308.15 K, x1 = 0.5 | 866.532 ± 0.42 | 4.929 ± 0.15
308.15 K, x1 = 0.6001 | 882.111 ± 0.48 | 5.962 ± 0.19
308.15 K, x1 = 0.7 | 898.074 ± 0.54 | 7.358 ± 0.23
308.15 K, x1 = 0.8 | 914.445 ± 0.61 | 9.005 ± 0.28
308.15 K, x1 = 0.8999 | 931.229 ± 0.69 | 11.12 ± 0.35
308.15 K, x1 = 1 | 948.577 ± 0.78 | 13.88 ± 0.44
313.15 K, x1 = 0.1003 | 803.008 ± 0.27 | 2.083 ± 0.064
313.15 K, x1 = 0.2005 | 817.246 ± 0.29 | 2.436 ± 0.075
313.15 K, x1 = 0.3 | 831.847 ± 0.33 | 2.887 ± 0.089
313.15 K, x1 = 0.3999 | 847.055 ± 0.37 | 3.435 ± 0.11
313.15 K, x1 = 0.5 | 862.397 ± 0.42 | 4.114 ± 0.13
313.15 K, x1 = 0.6001 | 877.993 ± 0.47 | 4.924 ± 0.15
313.15 K, x1 = 0.7 | 893.97 ± 0.54 | 6.014 ± 0.19
313.15 K, x1 = 0.8 | 910.355 ± 0.61 | 7.28 ± 0.23
313.15 K, x1 = 0.8999 | 927.181 ± 0.69 | 8.894 ± 0.28
313.15 K, x1 = 1 | 944.515 ± 0.77 | 10.96 ± 0.35
318.15 K, x1 = 0.1003 | 798.619 ± 0.27 | 1.795 ± 0.055
318.15 K, x1 = 0.2005 | 812.957 ± 0.29 | 2.094 ± 0.065
318.15 K, x1 = 0.3 | 827.606 ± 0.33 | 2.466 ± 0.076
318.15 K, x1 = 0.3999 | 842.848 ± 0.37 | 2.917 ± 0.091
318.15 K, x1 = 0.5 | 858.232 ± 0.42 | 3.47 ± 0.11
318.15 K, x1 = 0.6001 | 873.856 ± 0.47 | 4.113 ± 0.13
318.15 K, x1 = 0.7 | 889.829 ± 0.53 | 4.982 ± 0.16
318.15 K, x1 = 0.8 | 906.227 ± 0.6 | 5.972 ± 0.19
318.15 K, x1 = 0.8999 | 923.11 ± 0.68 | 7.219 ± 0.23
318.15 K, x1 = 1 | 940.423 ± 0.77 | 8.798 ± 0.28
323.15 K, x1 = 0.1003 | 794.161 ± 0.27 | 1.556 ± 0.048
323.15 K, x1 = 0.2005 | 808.592 ± 0.29 | 1.814 ± 0.056
323.15 K, x1 = 0.3 | 823.3 ± 0.33 | 2.124 ± 0.066
323.15 K, x1 = 0.3999 | 838.586 ± 0.37 | 2.499 ± 0.078
323.15 K, x1 = 0.5 | 853.992 ± 0.42 | 2.954 ± 0.092
323.15 K, x1 = 0.6001 | 869.642 ± 0.47 | 3.477 ± 0.11
323.15 K, x1 = 0.7 | 885.646 ± 0.53 | 4.164 ± 0.13
323.15 K, x1 = 0.8 | 902.064 ± 0.6 | 4.955 ± 0.16
323.15 K, x1 = 0.8999 | 918.943 ± 0.68 | 5.938 ± 0.19
323.15 K, x1 = 1 | 936.293 ± 0.76 | 7.166 ± 0.23
328.15 K, x1 = 0.1003 | 789.608 ± 0.27 | 1.358 ± 0.042
328.15 K, x1 = 0.2005 | 804.15 ± 0.29 | 1.576 ± 0.049
328.15 K, x1 = 0.3 | 818.925 ± 0.33 | 1.845 ± 0.057
328.15 K, x1 = 0.3999 | 834.264 ± 0.37 | 2.154 ± 0.067
328.15 K, x1 = 0.5 | 849.702 ± 0.42 | 2.529 ± 0.079
328.15 K, x1 = 0.6001 | 865.379 ± 0.47 | 2.969 ± 0.093
328.15 K, x1 = 0.7 | 881.417 ± 0.53 | 3.521 ± 0.11
328.15 K, x1 = 0.8 | 897.859 ± 0.6 | 4.163 ± 0.13
328.15 K, x1 = 0.8999 | 914.764 ± 0.67 | 4.947 ± 0.16
328.15 K, x1 = 1 | 932.13 ± 0.76 | 5.915 ± 0.19
333.15 K, x1 = 0.1003 | 784.956 ± 0.27 | 1.211 ± 0.038
333.15 K, x1 = 0.2005 | 799.616 ± 0.29 | 1.398 ± 0.043
333.15 K, x1 = 0.3 | 814.474 ± 0.33 | 1.637 ± 0.051
333.15 K, x1 = 0.3999 | 829.873 ± 0.37 | 1.897 ± 0.059
333.15 K, x1 = 0.5 | 845.357 ± 0.41 | 2.212 ± 0.069
333.15 K, x1 = 0.6001 | 861.071 ± 0.47 | 2.59 ± 0.081
333.15 K, x1 = 0.7 | 877.143 ± 0.53 | 3.042 ± 0.096
333.15 K, x1 = 0.8 | 893.609 ± 0.59 | 3.571 ± 0.11
333.15 K, x1 = 0.8999 | 910.537 ± 0.67 | 4.21 ± 0.13
333.15 K, x1 = 1 | 927.93 ± 0.75 | 4.986 ± 0.16
